According to publication PMC4942689, “Deciphering the function of the CNGB1b subunit in olfactory CNG channels” (Scientific Reports, 2016):

Legend:
CNGA2TM:A4 = target: T1, CNGA2TM:A4 (Rattus norvegicus, UniProt Q00195+Q64359, T539M); assay: Ligand binding, confocal patch-clamp fluorometry; set-up: key: +: ligand binding to the respective modulatory subunits was either observed or not; −: ligand binding to the respective modulatory subunits was either observed or not; settings: 10 μM; construct CNGA2TM:A4
T1 construct: expressed in transfected cells; host or cells: Xenopus laevis oocytes (cRNA injection), excised patches
Description: The channels to be studied were expressed in Xenopus oocytes. We first tested the subunit composition in our channels when coexpressing different combinations of subunits by single-channel recordings. For CNGA2:A4, CNGA2:B1b and CNGA2:A4:B1b channels we exclusively obtained the specific and easily distinguishable single-channel activity reported earlier when injecting respective amounts of RNA[7][13]. We therefore assumed that the channels formed had always the expected subunit composition. The specific binding of cyclic nucleotides and the activation of the CNG channels were measured in parallel by means of confocal patch-clamp fluorometry in excised patches, using fluorescent cyclic nucleotide derivatives. The method has been described previously.
(§1) The ligand binding was measured in macropatches by patch-clamp fluorometry[41][42] combined with confocal microscopy. […] Recordings were performed with an LSM 510 or 710 confocal microscope (Zeiss, Jena, Germany) and were triggered by the ISO3 software (MFK, Niedernhausen, Germany). To distinguish between the fluorescence of the unbound ligands from that of the bound ligands, a second dye, DY647 (Dyomics, Jena, Germany), was added to the bath solution. The 543-nm and 633-nm lines of a He-Ne laser were used to excite fcAMP/fcGMP and DY647, respectively. The method of confocal patch-clamp fluorometry has been described in detail previously.

CNGA2TM:A4RE:B1b = target: T2, CNGA2TM:A4RE:B1b (Rattus norvegicus, UniProt A0A8I5ZN27+Q00195+Q64359, R430E/T539M); assay: Channel activation during confocal patch-clamp fluorometry; format: biochemical; settings: 10 μM fcGMP; normalized to current at 4 mM cGMP
T2 construct: expressed in transfected cells; host or cells: Xenopus laevis oocytes (cRNA injection), excised inside-out patches
Description: (§2) To verify the hypothesis that the CNGB1b subunit in CNGA2:A4:B1b channels binds cyclic nucleotides, we coexpressed CNGB1b with CNGA4RE and either CNGA2RE or CNGA2TM and measured ligand binding in the presence of 10 μM fcGMP. […] To verify the specificity of the binding to the CNGB1b subunit in these heterotetrameric channels, we coexpressed the CNGB1bRE subunit with CNGA2RE and CNGA4RE.
(§3) Figure 2 In a CNGA2:A4 background the CNGB1b subunit binds both fcGMP and fHcAMP and activates the channel. (a) Binding of fcGMP to the CNGB1b subunit evokes channel activation. Binding of fcGMP to CNGB1b was observed when coexpressed with either CNGA2RE:A4RE or CNGA2TM:A4RE (upper diagram). […] (b) Binding of fHcAMP to CNGB1b was observed when coexpressed with both CNGA2RE and CNGA4RE. When disabling the binding domain of CNGB1b, the fluorescence intensity was nearly abolished. Correspondingly, CNGA2RE:A4RE:B1b channels were activated by the ligand only when the CNGB1b binding site was available.
(§4) Patch-clamp experiments were performed using an Axopatch 200B amplifier (Molecular Devices LLC, CA, U.S.A.) in the inside-out configuration. The patch pipettes for recording of macroscopic currents were pulled from borosilicate glass tubing (outer diameter 2.0 mm, inner diameter 1.0 mm; Hilgenberg GmbH, Germany). The initial resistance was 0.7–1.3 MΩ. The patches were formed as pushed inside-out patches. […] Cyclic nucleotide concentration jumps were performed using a double-barreled glass pipette mounted on a piezo-driven device. Intracellular (bath) and extracellular (pipette) solutions contained (mM) 150 KCl, 1 EGTA, 5 Hepes, pH = 7.4 with KOH. […] Currents in the absence of the cyclic nucleotide were subtracted. All patches included in this study were first tested for channel expression in the presence of a saturating ligand concentration. Only patches with large current, i.e. a large number of channels, were included in our statistics. The currents were measured at +10 mV or, if mentioned, at +100 mV.
as §1

CNGA2TM:A4RE:B1bRE = target: T3, CNGA2TM:A4RE:B1bRE (Rattus norvegicus, UniProt A0A8I5ZN27+Q00195+Q64359, R1106E/R430E/T539M); assay: as above; format: biochemical; settings: 10 μM fcGMP; all four binding sites disabled
T3 construct: expressed in transfected cells; host or cells: Xenopus laevis oocytes (cRNA injection), excised inside-out patches
Description: as §2, §3, §4, §1

CNGA2RE:A4RE:B1bRE = target: T4, CNGA2RE:A4RE:B1bRE (Rattus norvegicus, UniProt A0A8I5ZN27+Q00195+Q64359, R1106E/R430E/R538E); assay: as above; format: biochemical; settings: 10 μM fcGMP; all four binding sites disabled
T4 construct: expressed in transfected cells; host or cells: Xenopus laevis oocytes (cRNA injection), excised inside-out patches
Description: as §2, §3, §4, §1

[1] = target: T5, homotetrameric CNGA2 channels (Rattus norvegicus, UniProt Q00195); assay: Concentration-activation relationship, inside-out patch-clamp, Xenopus oocytes; format: biochemical
T5 construct: expressed in transfected cells; host or cells: Xenopus laevis oocytes (cRNA injection), excised inside-out patches
Description: as §4, with “The initial resistance was 0.7–1.3 MΩ.” left out, “mV. Fits of equations to data points were performed with the 8.1G® software (OriginLab Corporation, Northampton, U.S.A.). Concentration-activation relationships were obtained by relating the actual current amplitude, I, to the maximum current amplitude elicited by a saturating concentration of ligand, Imax, and plotting this ratio as function of the ligand concentration, x. […]” for “mV.”

T5 sequence (Q00195 whole entry): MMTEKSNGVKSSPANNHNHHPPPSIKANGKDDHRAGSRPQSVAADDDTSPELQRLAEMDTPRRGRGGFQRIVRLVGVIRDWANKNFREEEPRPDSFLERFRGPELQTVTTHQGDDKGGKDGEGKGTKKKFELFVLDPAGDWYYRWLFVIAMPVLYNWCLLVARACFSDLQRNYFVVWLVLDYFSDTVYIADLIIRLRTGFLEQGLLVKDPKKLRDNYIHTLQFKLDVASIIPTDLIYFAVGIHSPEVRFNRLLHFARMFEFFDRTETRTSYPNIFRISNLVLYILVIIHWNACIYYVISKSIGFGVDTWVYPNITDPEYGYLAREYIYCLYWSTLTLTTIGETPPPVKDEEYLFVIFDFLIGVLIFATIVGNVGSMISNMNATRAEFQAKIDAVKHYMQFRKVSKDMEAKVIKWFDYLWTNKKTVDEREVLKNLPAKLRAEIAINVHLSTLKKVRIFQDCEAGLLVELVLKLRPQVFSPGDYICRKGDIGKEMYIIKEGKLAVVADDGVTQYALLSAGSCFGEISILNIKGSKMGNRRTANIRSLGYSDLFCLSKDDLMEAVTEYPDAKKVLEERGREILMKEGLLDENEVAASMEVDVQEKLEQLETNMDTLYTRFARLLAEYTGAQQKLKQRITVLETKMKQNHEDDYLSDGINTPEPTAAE
T3 sequence (Q00195 whole entry T539M): as the sequence (Q00195 whole entry) above, with T539M counted along it
T3 sequence (Q64359 whole entry R430E): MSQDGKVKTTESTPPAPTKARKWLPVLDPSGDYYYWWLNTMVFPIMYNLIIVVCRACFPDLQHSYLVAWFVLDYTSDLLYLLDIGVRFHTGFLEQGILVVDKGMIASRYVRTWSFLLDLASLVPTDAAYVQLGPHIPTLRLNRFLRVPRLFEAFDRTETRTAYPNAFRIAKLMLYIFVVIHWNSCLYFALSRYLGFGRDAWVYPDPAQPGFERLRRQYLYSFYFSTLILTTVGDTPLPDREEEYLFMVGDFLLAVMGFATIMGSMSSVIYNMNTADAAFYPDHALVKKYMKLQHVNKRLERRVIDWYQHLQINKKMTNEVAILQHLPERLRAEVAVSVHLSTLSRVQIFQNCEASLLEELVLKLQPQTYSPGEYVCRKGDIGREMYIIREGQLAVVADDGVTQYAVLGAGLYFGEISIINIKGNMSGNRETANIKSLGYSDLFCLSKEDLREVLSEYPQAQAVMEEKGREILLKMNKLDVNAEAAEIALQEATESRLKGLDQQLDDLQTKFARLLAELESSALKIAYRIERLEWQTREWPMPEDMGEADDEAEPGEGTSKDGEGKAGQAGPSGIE
T3 sequence (A0A8I5ZN27 1-858 isoform A0A8I5ZN27-2 R657E): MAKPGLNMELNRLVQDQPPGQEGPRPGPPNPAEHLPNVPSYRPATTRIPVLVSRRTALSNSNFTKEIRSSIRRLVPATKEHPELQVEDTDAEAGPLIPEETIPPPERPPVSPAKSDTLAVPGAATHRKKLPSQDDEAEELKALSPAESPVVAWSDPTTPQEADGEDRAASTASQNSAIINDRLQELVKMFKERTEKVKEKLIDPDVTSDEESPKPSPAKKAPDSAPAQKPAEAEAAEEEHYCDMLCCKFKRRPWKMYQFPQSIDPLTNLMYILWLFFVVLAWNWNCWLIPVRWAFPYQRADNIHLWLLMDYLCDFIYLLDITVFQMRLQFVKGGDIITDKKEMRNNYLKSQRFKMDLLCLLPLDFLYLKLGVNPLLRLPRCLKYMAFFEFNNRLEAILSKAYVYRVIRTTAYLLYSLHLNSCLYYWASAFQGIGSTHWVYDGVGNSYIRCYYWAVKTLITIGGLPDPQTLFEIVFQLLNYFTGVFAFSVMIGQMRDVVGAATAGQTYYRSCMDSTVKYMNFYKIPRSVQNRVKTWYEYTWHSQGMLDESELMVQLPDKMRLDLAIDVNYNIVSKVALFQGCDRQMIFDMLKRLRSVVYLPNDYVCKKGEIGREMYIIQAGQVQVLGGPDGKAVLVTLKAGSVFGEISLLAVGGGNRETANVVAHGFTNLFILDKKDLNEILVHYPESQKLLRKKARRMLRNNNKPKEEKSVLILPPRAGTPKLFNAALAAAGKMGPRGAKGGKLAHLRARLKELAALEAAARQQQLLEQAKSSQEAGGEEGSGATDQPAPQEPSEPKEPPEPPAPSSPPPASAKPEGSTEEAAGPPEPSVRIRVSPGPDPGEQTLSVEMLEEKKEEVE
T1 sequence (Q00195 whole entry T539M): as the sequence (Q00195 whole entry) above, with T539M counted along it
T1 sequence (Q64359 whole entry): as the sequence (Q64359 whole entry R430E) above, with E430R counted along it
T2 sequence (Q00195 whole entry T539M): as the sequence (Q00195 whole entry) above, with T539M counted along it
T2 sequence (Q64359 whole entry R430E): as the sequence (Q64359 whole entry R430E) above
T2 sequence (A0A8I5ZN27 1-858 isoform A0A8I5ZN27-2, stated change not applied): as the sequence (A0A8I5ZN27 1-858 isoform A0A8I5ZN27-2 R657E) above, with E657R counted along it
T4 sequence (Q00195 whole entry R538E): as the sequence (Q00195 whole entry) above, with R538E counted along it
T4 sequence (Q64359 whole entry R430E): as the sequence (Q64359 whole entry R430E) above
T4 sequence (A0A8I5ZN27 1-858 isoform A0A8I5ZN27-2 R657E): as the sequence (A0A8I5ZN27 1-858 isoform A0A8I5ZN27-2 R657E) above

Molecule: 8-[DY-547]-AET-cGMP [fcGMP]
- Ligand binding to CNGA4 (CNGA2TM:A4): +
- activation (I/Imax) (CNGA2TM:A4RE:B1b): 1.7 ± 0.6%
- activation (CNGA2TM:A4RE:B1bRE): did not trigger activation
- activation (CNGA2RE:A4RE:B1bRE): did not trigger activation

Molecule: Nc1nc2c(ncn2[C@@H]2O[C@@H]3COP(=O)(O)O[C@H]3[C@H]2O)c(=O)[nH]1 [cGMP]
- H ([1]; Hill coefficient, Equation 1): 1.9
- EC50 ([1]; fit with Equation 1): 1740 nM
